This passage reports IC50 results from patent publication US20240294551A1 (AMGEN INC., priority 2022, published 2024).

Read-outs that look alike come from different tables or passages of the source.

One assay concerns MIA PaCa-2 cells. Kind of assay: MIA PaCa-2 CTG Assay (CellTiter-Glo cell viability). Format: cell-based, human. The conditions noted are these: Mia PaCa-2, 72 h, second value of the cell, read-out: G12D/C/V Cell Proliferation CTG (72 h) Mia PaCa-2. The gist of the method:
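Human pancreatic carcinoma cells in RPMI 1640 with 10% FBS, seeded at 1.67E+04 cells/mL and left overnight, were treated with serially diluted compound for 72 h at 37° C, 5% CO2. Viability was read by CellTiter-Glo luminescence normalized to DMSO; IC50 came from a 4-parameter logistic fit.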

Assay [1] relates to Phosphorylation of ERK1/2 in AsPC-1 cells. Kind of assay: Phospho-ERK1/2 MSD Assay. Format: cell-based, human. The conditions noted are these: read-out: 2 h p-ERK (AsPC-1 cells), IC50. The gist of the method: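 Read-out: MSD electrochemiluminescent detection of phosphorylated ERK1/2 in whole-cell lysates, fitted to a 4-parameter logistic curve for IC50. Prior to lysis, AsPC-1 cells (25,000 per well) received a 2 h compound dose-response at 37 °C.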

The next assay has as its system AsPC-1 cells. Kind of assay: AsPC-1 CTG Assay (CellTiter-Glo cell viability). Format: cell-based, human. The conditions noted are these: AsPC-1, 72 h, first value of the cell, read-out: G12D/C/V Cell Proliferation CTG (72 h) AsPC-1. An outline of the steps: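 Human pancreatic AsPC-1 or colon SW620 cells in RPMI 1640 with 10% FBS, seeded overnight, then exposed to serially diluted compound for 72 h at 37 °C. CellTiter-Glo luminescence normalized to DMSO control; IC50 from a 4-parameter logistic model.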

Assay [2] deals with His-tagged KRAS G12D protein (Homo sapiens (Human), UniProt P01116, G12D). Kind of assay: KRAS G12D TR-FRET Assay. Format: binding. Conditions: read-out: KRAS G12D Binding IC50. The gist of the method: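 His-tagged KRAS G12D (diluted to 20 nM in pH 7.4 HEPES buffer with 10 mM MgCl2 and 10 μM GDP) was preincubated with titrated compound for 30 min at room temperature. Biotinylated KRPep-2d peptide (diluted to 20 nM) was then added for 1 h, and displacement was monitored by TR-FRET.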
Chain of His-tagged KRAS G12D protein (P01116 other isoform, or with tags, fused parts or gaps G12D): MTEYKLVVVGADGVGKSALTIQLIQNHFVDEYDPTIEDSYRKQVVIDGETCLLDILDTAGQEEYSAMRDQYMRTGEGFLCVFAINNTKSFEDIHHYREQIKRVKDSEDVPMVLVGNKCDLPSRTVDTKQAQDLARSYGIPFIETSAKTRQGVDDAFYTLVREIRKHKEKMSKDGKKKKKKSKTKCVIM

Assay [3] deals with GDP-bound KRAS protein (aa 1-169), containing both G12D and C118A amino acid substitutions (Homo sapiens (Human), UniProt P01116, C118A/G12D). Kind of assay: KRAS G12D Coupled Nucleotide Exchange Assay. Format: biochemical. Conditions: read-out: KRAS G12D Coupled Exchange IC50.
Chain of GDP-bound KRAS protein (aa 1-169), containing both G12D and C118A amino acid substitutions (P01116 other isoform, or with tags, fused parts or gaps G12D/C118A): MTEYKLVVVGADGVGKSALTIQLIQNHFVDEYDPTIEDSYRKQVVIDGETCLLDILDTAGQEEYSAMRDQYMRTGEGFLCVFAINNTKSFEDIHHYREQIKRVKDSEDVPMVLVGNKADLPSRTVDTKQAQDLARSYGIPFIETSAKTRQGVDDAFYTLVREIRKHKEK

Regarding `Cc1cc2[nH]ncc2c2c1CCCOC(=O)O[C@@H]1CCCCN(C1)c1nc(OC[C@@]34CCCN3C[C@H](F)C4)nc3c(F)c-2ncc13` [Example 98, (26R)-32-fluoro-4-(((2R,7aS)-2-fluorotetrahydro-1H-pyrrolo[1,2-a]pyrrol-7a(5H)-yl)methoxy)-18-methyl-23,25-dioxa-1,3,5,9,14,15-hexaazahexacyclo[24.4.1.1~6,10~.0~2,7~.0~11,19~.0~12,16~]dotriaconta-2,4,6,8,10(32),11,13,16,18-nonaen-24-one], the IC50 in the assay with MIA PaCa-2 cells (Homo sapiens) came out at 50 nM; in assay [1] (Homo sapiens, ASPC1, 2 h), 17 nM; with AsPC-1 cells (Homo sapiens, ASPC1, 72 h), 140 nM; in assay [2], 4 nM; in assay [3], 2 nM.

For `Cc1cc2[nH]ncc2c2c1CCCC(=O)OCC1CCCN(C1)c1nc(OC[C@@]34CCCN3C[C@H](F)C4)nc3c(F)c-2ncc13` (some centres unmarked) [Example 104], the IC50 came to 300 nM in the assay with MIA PaCa-2 cells (Homo sapiens); 38 nM in assay [1] (Homo sapiens, ASPC1, 2 h); 860 nM in the assay with AsPC-1 cells (Homo sapiens, ASPC1, 72 h); 7 nM in assay [2]; 2 nM in assay [3].

`Cc1cc2[nH]ncc2c2c1CCOC(=O)OC[C@@H]1CCCN(C1)c1nc(OC[C@@]34CCCN3C[C@H](F)C4)nc3c(F)c-2ncc13` [Example 126, (17R)-30-Fluoro-24-(((2R,7aS)-2-fluorotetrahydro-1H-pyrrolo[1,2-a]pyrrol-7a(5H)-yl)methoxy)-9-methyl-13,15-dioxa-5,6,21,23,25,29-hexaazahexacyclo[24.3.1.1˜17,21˜.0˜2,10˜.0˜3,7˜.0˜22,27˜]hentriaconta-1(30),2,4,7,9,22,24,26,28-nonaen-14-one bis(2,2,2-trifluoroacetate)]: the IC50 in the assay on MIA PaCa-2 cells (Homo sapiens) amounted to 60 nM; in assay [1] (Homo sapiens, ASPC1, 2 h), 10 nM; in the assay with AsPC-1 cells (Homo sapiens, ASPC1, 72 h) it was 160 nM; in assay [2] it was 2 nM; in assay [3], 1 nM.

Consider `O=C1CC[C@@H]2C[C@@H]2c2c(Cl)cc3[nH]ncc3c2-c2ncc3c(nc(OC[C@@]45CCCN4C[C@H](F)C5)nc3c2F)N2CCC[C@H](C2)O1` [Example 127], for which the IC50 with MIA PaCa-2 cells was determined as 120 nM; in assay [1] (2 h), 13 nM; in the assay with AsPC-1 cells, 230 nM; in assay [2], 4 nM; in assay [3], 3 nM.

Take `Cc1cc2[nH]ncc2c2c1C/C=C\COC[C@@H]1CCCN(C1)c1nc(OC[C@@]34CCCN3C[C@H](F)C4)nc3c(F)c-2ncc13` [Example 131]: the IC50 with MIA PaCa-2 cells (Homo sapiens) amounted to 230 nM; in assay [1] (Homo sapiens, ASPC1, 2 h), 41 nM; with AsPC-1 cells (Homo sapiens, ASPC1, 72 h), 370 nM; in assay [2] it was 6 nM; in assay [3], 3 nM.

With `Fc1c2ncc3c(nc(OC[C@@]45CCCN4C[C@H](F)C5)nc13)N1CCCO[C@@H](COCCCCc3c(Cl)cc4[nH]ncc4c3-2)C1` [Example 140], the IC50 in the assay on MIA PaCa-2 cells (Homo sapiens) is 100 nM; in assay [1] (Homo sapiens, ASPC1, 2 h), 83 nM; with AsPC-1 cells (Homo sapiens, ASPC1, 72 h) it was 650 nM; in assay [2] it was 5 nM; in assay [3], 4 nM.

`Cc1cc2[nH]ncc2c2c1CCCn1ccc(n1)[C@H]1CCCN(C1)c1nc(OC[C@@]34CCCN3C[C@H](F)C4)nc3c(F)c-2ncc13` [Example 154, (18S)-31-fluoro-25-(((2R,7aS)-2-fluorotetrahydro-1H-pyrrolo[1,2-a]pyrrol-7a(5H)-yl)methoxy)-9-methyl-5,6,14,22,24,26,30,33-octaazaheptacyclo[25.3.1.1~14,17~.1~18,22~.0~2,10~.0~3,7~.0~23,28~]tritriaconta-1(31),2,4,7,9,15,17(33),23,25,27,29-undecaene]: the IC50 with MIA PaCa-2 cells (Homo sapiens) is 230 nM; in assay [1] (Homo sapiens, ASPC1, 2 h), 252 nM; in the assay on AsPC-1 cells (Homo sapiens, ASPC1, 72 h) it was 3360 nM; in assay [2], 2 nM; in assay [3] it was 4 nM.

With `O=C1OCCCc2c(Cl)cc3[nH]ncc3c2-c2ncc3c(nc(OC[C@H]4CC[C@@H]5COCCN54)nc3c2F)N2CCOC[C@H](C2)O1` [Example 185, (26S)-18-chloro-32-fluoro-4-((6R,8aR)-hexahydro-1H-pyrrolo[2,1-c][1,4]oxazin-6-ylmethoxy)-23,25,28-trioxa-1,3,5,9,14,15-hexaazahexacyclo[24.4.1.1~6,10~.0~2,7~.0~11,19~.0~12,16~]dotriaconta-2,4,6,8,10(32),11,13,16,18-nonaen-24-one], the IC50 with MIA PaCa-2 cells (Homo sapiens) is 33 nM; in assay [1] (Homo sapiens, ASPC1, 2 h) it was 12 nM; with AsPC-1 cells (Homo sapiens, ASPC1, 72 h), 38 nM; in assay [2], 6 nM; in assay [3], 5 nM.

For the compound `O=C1OCCCc2c(Cl)cc3[nH]ncc3c2-c2c(F)cc3c(nc(OC[C@@]45CCCN4C[C@H](F)C5)nc3c2F)N2CCOC[C@H](C2)O1` [Example 187, p-(26S)-18-chloro-9,32-difluoro-4-(((2R,7aS)-2-fluorotetrahydro-1H-pyrrolo[1,2-a]pyrrol-7a(5H)-yl)methoxy)-23,25,28-trioxa-1,3,5,14,15-pentaazahexacyclo[24.4.1.1~6,10~.0~2,7~.0~11,19~.0~12,16~]dotriaconta-2,4,6,8,10(32),11,13,16,18-nonaen-24-one], the IC50 in the assay with MIA PaCa-2 cells (Homo sapiens) turned out to be 15 nM; in assay [1] (Homo sapiens, ASPC1, 2 h), 4.6 nM; with AsPC-1 cells (Homo sapiens, ASPC1, 72 h), 76 nM; in assay [2], 4 nM; in assay [3] it was 2 nM.

For `O=C1OCCCc2c(Cl)cc3[nH]ncc3c2-c2ccc3c(nc(OC[C@@]45CCCN4C[C@H](F)C5)nc3c2F)N2CCOC[C@H](C2)O1` [Example 189, (26S)-18-chloro-32-fluoro-4-(((2R,7aS)-2-fluorotetrahydro-1H-pyrrolo[1,2-a]pyrrol-7a(5H)-yl)methoxy)-23,25,28-trioxa-1,3,5,14,15-pentaazahexacyclo[24.4.1.1~6,10~.0~2,7~.0~11,19~.0~12,16~]dotriaconta-2,4,6,8,10(32),11,13,16,18-nonaen-24-one], the IC50 with MIA PaCa-2 cells (Homo sapiens) turned out to be 24 nM; in assay [1] (Homo sapiens, ASPC1, 2 h), 4.9 nM; with AsPC-1 cells (Homo sapiens, ASPC1, 72 h) it was 115 nM; in assay [2] it was 3 nM; in assay [3], 2 nM.

With `CN1CCC[C@H]1COc1nc2c3cnc(c(F)c3n1)-c1c(c(Cl)cc3[nH]ncc13)CCCOC(=O)O[C@@H]1CCCCN2C1` [Example 202, (26R)-18-chloro-32-fluoro-4-(((2S)-1-methyl-2-pyrrolidinyl)methoxy)-23,25-dioxa-1,3,5,9,14,15-hexaazahexacyclo[24.4.1.1~6,10~.0~2,7~.0~11,19~.0~12,16~]dotriaconta-2,4,6,8,10(32),11,13,16,18-nonaen-24-one], the IC50 was determined as 113 nM in the assay with MIA PaCa-2 cells (Homo sapiens); 41.1 nM in assay [1] (Homo sapiens, ASPC1, 2 h); 494 nM in the assay with AsPC-1 cells (Homo sapiens, ASPC1, 72 h); 6 nM in assay [2]; 3 nM in assay [3].

Consider `O=C1OCCCc2c(F)cc3[nH]ncc3c2-c2ncc3c(nc(OC[C@@]45CCCN4C[C@H](F)C5)nc3c2F)N2CCOC[C@H](C2)O1` [Example 208, (26S)-18,32-difluoro-4-(((2R,7aS)-2-fluorotetrahydro-1H-pyrrolo[1,2-a]pyrrol-7a(5H)-yl)methoxy)-23,25,28-trioxa-1,3,5,9,14,15-hexaazahexacyclo[24.4.1.1~6,10~.0~2,7~.0~11,19~.0~12,16~]dotriaconta-2,4,6,8,10(32),11,13,16,18-nonaen-24-one], for which the IC50 in the assay with MIA PaCa-2 cells (Homo sapiens) came out at 38 nM; in assay [1] (Homo sapiens, ASPC1, 2 h), 20.7 nM; with AsPC-1 cells (Homo sapiens, ASPC1, 72 h), 262 nM; in assay [2], 3 nM; in assay [3], 2 nM.

Turning to `O=C1OCCc2c(Cl)cc3[nH]ncc3c2-c2ncc3c(nc(OC[C@@]45CCCN4C[C@H](F)C5)nc3c2F)N2CCO[C@@H](CO1)C2` [Example 217], the IC50 in the assay on MIA PaCa-2 cells (Homo sapiens) stood at 49 nM; in assay [1] (Homo sapiens, ASPC1, 2 h), 23 nM; with AsPC-1 cells (Homo sapiens, ASPC1, 72 h) it was 455 nM; in assay [2], 4 nM; in assay [3], 2 nM.

On to `O=C1OCCc2c(Cl)cc3[nH]ncc3c2-c2ncc3c(nc(OC[C@@]45CCCN4C[C@H](F)C5)nc3c2F)N2CCOCC(CO1)C2` (some centres unmarked) [Example 220], for which the IC50 with MIA PaCa-2 cells (Homo sapiens) was 64 nM; in assay [1] (Homo sapiens, ASPC1, 2 h), 58.9 nM; in the assay with AsPC-1 cells (Homo sapiens, ASPC1, 72 h), 816 nM; in assay [2] it was 6 nM; in assay [3] it was 3 nM.

`O=C1OCCc2c(Cl)cc3[nH]ncc3c2-c2ncc3c(nc(OC[C@@]45CCCN4C[C@H](F)C5)nc3c2F)N2CCCCC(CO1)C2` (some centres unmarked) [Example 222]: the IC50 amounted to 52 nM in the assay with MIA PaCa-2 cells (Homo sapiens); 9.4 nM in assay [1] (Homo sapiens, ASPC1, 2 h); 287 nM in the assay with AsPC-1 cells (Homo sapiens, ASPC1, 72 h); 3 nM in assay [2]; 2 nM in assay [3].

Take `Fc1c2ncc3c(nc(OC[C@@]45CCCN4C[C@H](F)C5)nc13)N1CCC[C@@H](Cc3ncc(o3)CCc3c(Cl)cc4[nH]ncc4c3-2)C1` [Example 231]: the IC50 in the assay with MIA PaCa-2 cells (Homo sapiens) worked out at 42 nM; in assay [1] (Homo sapiens, ASPC1, 2 h) it was 11.6 nM; with AsPC-1 cells (Homo sapiens, ASPC1, 72 h), 29 nM; in assay [2] it was 6 nM; in assay [3] it was 4 nM.
